Test results from patent US11000033B2, “Ketone or oxime compound, and herbicide” (NISSAN CHEMICAL CORPORATION, priority 2014, dated 2021).

Experiments:
Assay type in all cases: in vivo
[1] = test system: Scirpus juncoides; experiment: Test Example 1: herbicidal activity, application before weed generation in submerged conditions (symbol B); conditions: application herbicide amount 320 g/ha
In short: (§1)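 Weeds are sown into submerged alluvial soil alongside transplanted 2.5-leaf rice, and the compound, as an emulsion diluted to a set rate, is applied onto the water before emergence. Rating on the 0–5 herbicidal-ratio scale follows 3 weeks of greenhouse growth at 25–30 °C.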

[2] = test system: Monochoria vaginalis; experiment: Test Example 1: herbicidal activity, application before weed generation in submerged conditions (symbol C); conditions: application herbicide amount 320 g/ha
In short: as §1

[3] = test system: Echinochloa crus-galli var. crus-galli; experiment: Test Example 3: herbicidal effect by foliage application, Wagner pot (symbol H); conditions: application herbicide amount 320 g/ha
In short: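 Post-emergence, paddy-type test: seedlings 14 d old in shallow-flooded (0.1–0.5 cm) alluvial soil, 25–30 °C greenhouse. Emulsion diluted to target rate, sprayed on leaves. Read-out: visual effect on each species at 3 weeks, per set criteria.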

[4] = test system: Setaria viridis; experiment: Test Example 4: herbicidal effect by soil treatment (symbol G)
In short: (§2)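 Seeds were sown in sterilized diluvial soil, covered with about 1.5 cm of soil, and the soil surface was sprayed with a water-diluted emulsion of the compound at a predetermined rate. Plants grew in a greenhouse at 25° C. to 30° C.; effects were scored visually 3 weeks after application.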

[5] = test system: Avena fatua; experiment: Test Example 4: herbicidal effect by soil treatment (symbol I)
In short: as §2

[6] = test system: Lolium multiflorum Lam.; experiment: Test Example 4: herbicidal effect by soil treatment (symbol K)
In short: as §2

[7] = test system: Apera spica-venti; experiment: Test Example 4: herbicidal effect by soil treatment (symbol L)
In short: as §2

[8] = test system: Amaranthus retroflexus; experiment: Test Example 4: herbicidal effect by soil treatment (symbol N)
In short: as §2

[9] = test system: Chenopodium album; experiment: Test Example 4: herbicidal effect by soil treatment (symbol O)
In short: as §2

[10] = test system: soybean; experiment: Test Example 4: effect on crop by soil treatment (symbol d); conditions: for d: soybean, effect grade on crop: 320 g/ha; for d: soybean, effect on crop grade: application herbicide amount 320 g/ha
In short: (§3)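 Greenhouse culture at 25° C. to 30° C. followed sowing of seed in spots on sterilized diluvial soil with a soil cover close to 1.5 cm thick.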

[11] = test system: wheat; experiment: Test Example 4: effect on crop by soil treatment (symbol e); conditions: for e: wheat, effect grade on crop: 320 g/ha; for e: wheat, effect on crop grade: application herbicide amount 320 g/ha
In short: as §3

[12] = test system: beet; experiment: Test Example 4: effect on crop by soil treatment (symbol f); conditions: for f: beet, effect grade on crop: 320 g/ha; for f: beet, effect on crop grade: application herbicide amount 320 g/ha
In short: as §3

[13] = test system: Setaria viridis; experiment: Test Example 5: herbicidal effect by foliage application, plastic box (symbol G); conditions: 320 g/ha, 3 weeks after application
In short: (§4)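 Effect is rated 3 weeks after a foliar spray of water-diluted emulsion concentrate at a predetermined herbicide amount. Plants had grown 14 days in a 25° C. to 30° C. greenhouse from seed in sterilized diluvial soil.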

[14] = test system: Echinochloa crus-galli var. crus-galli; experiment: Test Example 5: herbicidal effect by foliage application, plastic box (symbol H); conditions: 320 g/ha, 3 weeks after application
In short: as §4

[15] = test system: Abutilon theophrasti; experiment: Test Example 5: herbicidal effect by foliage application, plastic box (symbol M); conditions: 320 g/ha, 3 weeks after application
In short: as §4

[16] = test system: Amaranthus retroflexus; experiment: Test Example 5: herbicidal effect by foliage application, plastic box (symbol N); conditions: 320 g/ha, 3 weeks after application
In short: as §4

[17] = test system: Chenopodium album; experiment: Test Example 5: herbicidal effect by foliage application, plastic box (symbol O); conditions: 320 g/ha, 3 weeks after application
In short: as §4

[18] = test system: Galium spurium; experiment: Test Example 5: herbicidal effect by foliage application, plastic box (symbol Q); conditions: 320 g/ha, 3 weeks after application
In short: as §4

[19] = test system: soybean; experiment: Test Example 5: effect on crop by foliage application, plastic box (symbol d); conditions: 320 g/ha, 3 weeks after application
In short: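 Box culture: sterile diluvial soil, seeds spot-sown, ~1.5 cm cover, raised under glass at 25–30° C.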

[20] = application herbicide amount 320 g/ha

Row | SMILES | Herbicidal effect grade, B: Scirpus juncoides [1] | Herbicidal effect grade, C: Monochoria vaginalis [2] | herbicidal effect on H (Echinochloa crus-galli var. crus-galli), grade 0-5 [3] | G: Setaria viridis, herbicidal effect grade ([4]; 320 g/ha) | I: Avena fatua, herbicidal effect grade ([5]; 320 g/ha) | K: Lolium multiflorum Lam., herbicidal effect grade ([6]; 320 g/ha) | L: Apera spica-venti, herbicidal effect grade ([7]; 320 g/ha) | N: Amaranthus retroflexus, herbicidal effect grade ([8]; 320 g/ha) | O: Chenopodium album, herbicidal effect grade ([9]; 320 g/ha) | d: soybean, effect grade on crop [10] | e: wheat, effect grade on crop [11] | f: beet, effect grade on crop [12] | G: Setaria viridis, herbicidal effect (criteria 0-5) [13] | H: Echinochloa crus-galli var. crus-galli, herbicidal effect (criteria 0-5) [14] | M: Abutilon theophrasti, herbicidal effect (criteria 0-5) [15] | N: Amaranthus retroflexus, herbicidal effect (criteria 0-5) [16] | O: Chenopodium album, herbicidal effect (criteria 0-5) [17] | Q: Galium spurium, herbicidal effect (criteria 0-5) [18] | d: soybean, effect on crop (criteria 0-5) [19] | G: Setaria viridis, herbicidal effect grade [4, 20] | other results
1 | CON=C(C)CC1CC(OC(=O)c2ccc(C(F)(F)F)cc2)=C(c2c(C)cc(C)cc2C)C1=O (stereo not shown) [1-149] | 5 (Herbicidal ratio of 90% or more (almost completely withered)) | 1 (Herbicidal ratio of 5% or higher and lower than 20%) | 5 (Herbicidal ratio of 90% or more (almost completely withered)) | 5 (Herbicidal ratio of 90% or more (almost completely withered)) | 0 (Herbicidal ratio of 5% or lower (almost no effect)) | 5 (Herbicidal ratio of 90% or more (almost completely withered)) | 5 (Herbicidal ratio of 90% or more (almost completely withered)) | 4 (Herbicidal ratio of 70% or higher and lower than 90%) | 0 (Herbicidal ratio of 5% or lower (almost no effect)) | 0 (Herbicidal ratio of 5% or lower (almost no effect)) | 5 (Herbicidal ratio of 90% or more (almost completely withered)) | 0 (Herbicidal ratio of 5% or lower (almost no effect)) | 5 (Herbicidal ratio of 90% or more (almost completely withered)) | 5 (Herbicidal ratio of 90% or more (almost completely withered)) | 4 (Herbicidal ratio of 70% or higher and lower than 90%) | 0 (Herbicidal ratio of 5% or lower (almost no effect)) | 2 (Herbicidal ratio of 20% or higher and lower than 40%) | 3 (Herbicidal ratio of 40% or higher and lower than 70%) | 2 (Herbicidal ratio of 20% or higher and lower than 40%) |  | 
2 | CCOC(=O)C(C(=O)Cc1ccccc1)C1CC(O)=C(c2c(C)cc(C)cc2C)C1=O (stereo not shown) [2-011] | 0 (Herbicidal ratio of 5% or lower (almost no effect)) | 0 (Herbicidal ratio of 5% or lower (almost no effect)) | 0 (Herbicidal ratio of 5% or lower (almost no effect)) |  |  |  |  |  |  |  |  |  |  |  |  |  |  |  |  | 0 (Herbicidal ratio of 5% or lower (almost no effect)) | I: Avena fatua, herbicidal effect grade [5, 20]: 0 (Herbicidal ratio of 5% or lower (almost no effect)); K: Lolium multiflorum Lam., herbicidal effect grade [6, 20]: 0 (Herbicidal ratio of 5% or lower (almost no effect)); L: Apera spica-venti, herbicidal effect grade [7, 20]: 0 (Herbicidal ratio of 5% or lower (almost no effect)); N: Amaranthus retroflexus, herbicidal effect grade [8, 20]: 0 (Herbicidal ratio of 5% or lower (almost no effect)); O: Chenopodium album, herbicidal effect grade [9, 20]: 0 (Herbicidal ratio of 5% or lower (almost no effect)); d: soybean, effect on crop grade [10]: 0 (Herbicidal ratio of 5% or lower (almost no effect)); e: wheat, effect on crop grade [11]: 0 (Herbicidal ratio of 5% or lower (almost no effect)); f: beet, effect on crop grade [12]: 0 (Herbicidal ratio of 5% or lower (almost no effect)); G: Setaria viridis, herbicidal effect grade [13]: 0 (Herbicidal ratio of 5% or lower (almost no effect)); H: Echinochloa crus-galli var. crus-galli, herbicidal effect grade [14]: 2 (Herbicidal ratio of 20% or higher and lower than 40%); M: Abutilon theophrasti, herbicidal effect grade [15]: 0 (Herbicidal ratio of 5% or lower (almost no effect)); N: Amaranthus retroflexus, herbicidal effect grade [16]: 0 (Herbicidal ratio of 5% or lower (almost no effect)); O: Chenopodium album, herbicidal effect grade [17]: 0 (Herbicidal ratio of 5% or lower (almost no effect)); Q: Galium spurium, herbicidal effect grade [18]: 0 (Herbicidal ratio of 5% or lower (almost no effect)); d: soybean, effect on crop grade [19]: 0 (Herbicidal ratio of 5% or lower (almost no effect))
3 | COCC(=O)CC1CC(O)=C(c2c(C)cc(C)cc2C)C1=O (stereo not shown) [2-007] | 2 (Herbicidal ratio of 20% or higher and lower than 40%) | 0 (Herbicidal ratio of 5% or lower (almost no effect)) | 5 (Herbicidal ratio of 90% or more (almost completely withered)) |  |  |  |  |  |  |  |  |  |  |  |  |  |  |  |  | 4 (Herbicidal ratio of 70% or higher and lower than 90%) | I: Avena fatua, herbicidal effect grade [5, 20]: 0 (Herbicidal ratio of 5% or lower (almost no effect)); K: Lolium multiflorum Lam., herbicidal effect grade [6, 20]: 5 (Herbicidal ratio of 90% or more (almost completely withered)); L: Apera spica-venti, herbicidal effect grade [7, 20]: 3 (Herbicidal ratio of 40% or higher and lower than 70%); N: Amaranthus retroflexus, herbicidal effect grade [8, 20]: 0 (Herbicidal ratio of 5% or lower (almost no effect)); O: Chenopodium album, herbicidal effect grade [9, 20]: 0 (Herbicidal ratio of 5% or lower (almost no effect)); d: soybean, effect on crop grade [10]: 0 (Herbicidal ratio of 5% or lower (almost no effect)); e: wheat, effect on crop grade [11]: 0 (Herbicidal ratio of 5% or lower (almost no effect)); f: beet, effect on crop grade [12]: 0 (Herbicidal ratio of 5% or lower (almost no effect)); G: Setaria viridis, herbicidal effect grade [13]: 0 (Herbicidal ratio of 5% or lower (almost no effect)); H: Echinochloa crus-galli var. crus-galli, herbicidal effect grade [14]: 1 (Herbicidal ratio of 5% or higher and lower than 20%); M: Abutilon theophrasti, herbicidal effect grade [15]: 0 (Herbicidal ratio of 5% or lower (almost no effect)); N: Amaranthus retroflexus, herbicidal effect grade [16]: 0 (Herbicidal ratio of 5% or lower (almost no effect)); O: Chenopodium album, herbicidal effect grade [17]: 0 (Herbicidal ratio of 5% or lower (almost no effect)); Q: Galium spurium, herbicidal effect grade [18]: 0 (Herbicidal ratio of 5% or lower (almost no effect)); d: soybean, effect on crop grade [19]: 0 (Herbicidal ratio of 5% or lower (almost no effect))
4 | C=CCOC(=O)OC1=C(c2c(C)cc(C)cc2C)C(=O)C(CC(C)=NOC)C1 (stereo not shown) [1-146] | 5 (Herbicidal ratio of 90% or more (almost completely withered)) | 1 (Herbicidal ratio of 5% or higher and lower than 20%) | 5 (Herbicidal ratio of 90% or more (almost completely withered)) | 5 (Herbicidal ratio of 90% or more (almost completely withered)) | 4 (Herbicidal ratio of 70% or higher and lower than 90%) | 5 (Herbicidal ratio of 90% or more (almost completely withered)) | 5 (Herbicidal ratio of 90% or more (almost completely withered)) | 5 (Herbicidal ratio of 90% or more (almost completely withered)) | 0 (Herbicidal ratio of 5% or lower (almost no effect)) | 0 (Herbicidal ratio of 5% or lower (almost no effect)) | 5 (Herbicidal ratio of 90% or more (almost completely withered)) | 3 (Herbicidal ratio of 40% or higher and lower than 70%) | 5 (Herbicidal ratio of 90% or more (almost completely withered)) | 5 (Herbicidal ratio of 90% or more (almost completely withered)) | 5 (Herbicidal ratio of 90% or more (almost completely withered)) | 0 (Herbicidal ratio of 5% or lower (almost no effect)) | 2 (Herbicidal ratio of 20% or higher and lower than 40%) | 3 (Herbicidal ratio of 40% or higher and lower than 70%) | 4 (Herbicidal ratio of 70% or higher and lower than 90%) |  | 
